Measured values from paper PMC6271825, “Synthesis and Cytotoxic Activity Evaluation of Novel Arylpiperazine Derivatives on Human Prostate Cancer Cell Lines” (Molecules, 2014).
Where a name gives a salt, the structure may show the parent alone.

Row | Structure (SMILES) | melting point [°C]
1 | FC(F)(F)c1ccc(N2CCN(CCc3ccc(COc4ccc5c(c4)OCO5)cc3)CC2)cc1 (as salt: HCl) [Compound 26, 1-(2-(4-((Benzo[d][1,3]dioxol-5-yloxy)methyl)phenyl)ethyl)-4-(4-(trifluoromethyl)phenyl)piperazine] | 176 to 177
2 | CC(=O)c1ccc(N2CCN(CCc3ccc(COc4ccc5c(c4)OCO5)cc3)CC2)cc1 (as salt: HCl) [Compound 27, 1-(4-(4-(2-(4-((Benzo[d][1,3]dioxol-5-yloxy)methyl)phenyl)ethyl)piperazin-1-yl)phenyl)ethanone] | 183 to 184
3 | c1ccc(C2CCN(CCc3ccc(COc4ccc5c(c4)OCO5)cc3)CC2)cc1 (as salt: HCl) [Compound 28, 1-(2-(4-((Benzo[d][1,3]dioxol-5-yloxy)methyl)phenyl)ethyl)-4-phenylpiperidine] | 183 to 184
4 | OC1(c2ccccc2)CCN(CCc2ccc(COc3ccc4c(c3)OCO4)cc2)CC1 (as salt: HCl) [Compound 29, 1-(2-(4-((Benzo[d][1,3]dioxol-5-yloxy)methyl)phenyl)ethyl)-4-phenylpiperidin-4-ol] | 194 to 195

The next lines start with the values.

Row | melting point [°C] | Structure (SMILES)
5 | 176 to 177 | Clc1ccccc1N1CCN(CCc2ccc(COc3ccc4c(c3)OCO4)cc2)CC1 (as salt: HCl) [Compound 19, 1-(2-(4-((Benzo[d][1,3]dioxol-5-yloxy)methyl)phenyl)ethyl)-4-(2-chlorophenyl)piperazine]
6 | 164 to 165 | Clc1ccc(N2CCN(CCc3ccc(COc4ccc5c(c4)OCO5)cc3)CC2)cc1 (as salt: HCl) [Compound 20, 1-(2-(4-((Benzo[d][1,3]dioxol-5-yloxy)methyl)phenyl)ethyl)-4-(4-chlorophenyl)piperazine]
7 | 177 to 178 | Clc1cccc(N2CCN(CCc3ccc(COc4ccc5c(c4)OCO5)cc3)CC2)c1 (as salt: HCl) [Compound 21, 1-(2-(4-((Benzo[d][1,3]dioxol-5-yloxy)methyl)phenyl)ethyl)-4-(3-chlorophenyl)piperazine]
8 | 177 to 178 | Clc1cccc(N2CCN(CCc3ccc(COc4ccc5c(c4)OCO5)cc3)CC2)c1Cl (as salt: HCl) [Compound 22, 1-(2-(4-((Benzo[d][1,3]dioxol-5-yloxy)methyl)phenyl)ethyl)-4-(2,3-dichlorophenyl)piperazine]
9 | 177 to 178 | COc1ccc(Cl)cc1N1CCN(CCc2ccc(COc3ccc4c(c3)OCO4)cc2)CC1 (as salt: HCl) [Compound 23, 1-(2-(4-((Benzo[d][1,3]dioxol-5-yloxy)methyl)phenyl)ethyl)-4-(5-chloro-2-methoxyphenyl)piperazine]
10 | 173 to 174 | Brc1ccc(N2CCN(CCc3ccc(COc4ccc5c(c4)OCO5)cc3)CC2)cc1 (as salt: HCl) [Compound 24, 1-(2-(4-((Benzo[d][1,3]dioxol-5-yloxy)methyl)phenyl)ethyl)-4-(4-bromophenyl)piperazine]
11 | 171 to 172 | FC(F)(F)c1ccccc1N1CCN(CCc2ccc(COc3ccc4c(c3)OCO4)cc2)CC1 (as salt: HCl) [Compound 25, 1-(2-(4-((Benzo[d][1,3]dioxol-5-yloxy)methyl)phenyl)ethyl)-4-(2-(trifluoromethyl)phenyl)piperazine]
